Patent US11197878B2, “Anti-inflammatory composition including novel quercetin-based compound” (AMOREPACIFIC CORPORATION, priority 2017, dated 2021)

Key:
Format in all cases: cell-based
Conditions in all cases: fibroblast culture medium; H2O2 500 μM 24 hours, then test material (31, 32: 100 μg/ml) 48 hours; ELISA
[1] = test system: PGE2 (Prostaglandin E2); assay: Test for inhibiting generation of PGE2 in H2O2-stimulated fibroblast (ELISA)
Protocol: (§1) Fibroblast (PromoCell, Germany) was inoculated in a 6-well culturing plate at a concentration of 1×10^5 cells, and cultured in a 5% CO2 incubator at 37° C. for 24 hours. The well was treated with H2O2 500 μM and stimulated for 24 hours, and then were treated with quercetin3-O-[3-O″-(E)-p-coumaroyl][β-D-glucopyranosyl-(1→3)-O-α-L-rhamnopyranosyl-(1→6)-O-β-D-glucopyranoside] (‘New Material 31’) and quercetin3-O-[3-O″-(E)-p-coumaroyl][α-L-rhamnopyranosyl-(1→6)-O-β-D-glucopyranoside]) (‘New Material 32’) at a concentration of 100 μg/ml, respectively, and reacted for 48 hours. After the reaction was finished, the culture medium was collected and the ELISA analysis was performed. Herein, α-bisabolol, which is the material typically used as an anti-inflammatory agent and abirritant, was used as a control. As PGE2, a kit of Assay Design® was used, and as IL-6 and IL-8, a kit of Endogen® was used, and the test was carried out according to the methods prescribed in the manuals of the respective companies. (‘31’ refers to New Material 31, and ‘32’ refers to New Material 32) Inhibition effect={1−(test sample−control)/(H2O2−control)}×100 <Equation 1>

[2] = test system: IL-8 (Interleukin 8); assay: Test for inhibiting generation of IL-8 in H2O2-stimulated fibroblast (ELISA)
Protocol: as §1

[3] = test system: IL-6 (Interleukin 6); assay: Test for inhibiting generation of IL-6 in H2O2-stimulated fibroblast (ELISA)
Protocol: as §1

“α-bisabolol [a-bisabolol, reference compound]” showed a PGE2 [1] of 205 pg/mL, an IL-8 [2] of 200 pg/mL and an IL-6 [3] of 180 pg/mL.
